Measured values as given in US20240408169A1 (priority 2023, published 2024).
*1 amine or outer side, *2 acyl side, *3 side chain or, on linkers, in order; H or OH if unused. Where a SMILES comes first, the peptide text is derived from it. Bridges are numbered along the chain shown (N, C = ends). [ ]: non-standard residue; d: D form. The star is where a group is joined. X212 = CN1CCC(Oc2ccc(-c3ccc(Cl)cc3C[C@@H](C(=O)[*:2])N(C)[*:1])cn2)CC1; X145 = CN1CCN(c2ccc(-c3ccc(F)cc3C[C@@H](C(=O)[*:2])N(C)[*:1])cc2F)CC1; X149 = CN([C@@H](Cc1cc(Cl)ccc1-c1ccnc(N2CCOCC2)c1F)C(=O)[*:2])[*:1]; X153 = CN([C@@H](Cc1cc(F)ccc1-c1cnn(C2CCOCC2)c1)C(=O)[*:2])[*:1]; X208 = CN([C@@H](Cc1cc(F)ccc1-c1cnn(CC(F)F)c1)C(=O)[*:2])[*:1]; X192 = COc1cccc(-c2ccc(Cl)cc2C[C@@H](C(=O)[*:2])N(C)[*:1])c1; NMehhhLys(Me) = CN([C@@H](CCCCCCCN(C)[*:3])C(=O)[*:2])[*:1]; X194 = CN([C@@H](Cc1cc(Cl)ccc1-c1ccnnc1)C(=O)[*:2])[*:1]; NMe(hhhLys) = CN([C@@H](CCCCCCCN[*:3])C(=O)[*:2])[*:1]; Cyclobutanecarbonyl(1-CF3) = O=C(C1(C(F)(F)F)CCC1)*; cBuCO(3,3-F2-1-CF3) = O=C(C1(C(F)(F)F)CC(F)(F)C1)*; Pro(trans-4-F) = O=C(O)[C@@H]1C[C@@H](F)CN1; Gly(cPr) = N[C@H](C(=O)O)C1CC1

Tests used:
[1] = target: T1, CyclinB1/CDK1 (Homo sapiens, UniProt P14635); experiment: Fluorescence Polarization (FP) competitive binding assay, Cyclin B1/Cdk1; details: 10 nM Cyclin B1/Cdk1, 2 nM FAM probe; average of 2-3 independent experiments; read-out: Cyclin B FP IC50;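 also: fluorescence polarization read after equilibration at room temperature, with IC50 taken from serially diluted dose-response curves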
T1 construct: purchased Eurofins, discovery 14-450

[2] = target: T2, CyclinA2/CDK2 (Homo sapiens, UniProt P20248); experiment: Fluorescence Polarization (FP) competitive binding assay, Cyclin A2/Cdk2; details: 8 nM Cyclin A2/Cdk2, 2 nM FAM probe; average of 2-3 independent experiments; read-out: Cyclin A FP IC50;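 also: plates equilibrated two hours at room temperature before polarization reading, IC50 fitted from eight-concentration compound titration curves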
T2 construct: purchased CRELUX Protein Services

[3] = system: OVCAR3 cells; experiment: MTT proliferation assay, OVCAR3; type: cell-based; details: 5 days compound exposure, 1:3 serial dilution starting at 10 μM;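 also: compound given as an 8- or 10-point series, one day after plating, with exposure covering roughly 3-4 cell doublings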
[4] = system: NCI-H1048 cells; experiment: MTT proliferation assay, NCI-H1048; type: cell-based; details: 5 days compound exposure, 1:3 serial dilution starting at 10 μM;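 also: Dose-response in 96-well plates over 8 or 10 concentration points, with exposure spanning 3-4 cell doublings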
[5] = target: T3, CyclinE1/CDK2 (Homo sapiens, UniProt P24864); experiment: Fluorescence Polarization (FP) competitive binding assay, Cyclin E1/Cdk2; details: 10 nM Cyclin E1/Cdk2, 2 nM FAM probe; average of 2-3 independent experiments; read-out: Cyclin E FP IC50;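 also: readings taken after two-hour equilibration at room temperature in HEPES buffer with NaCl, DTT, NP-40 and BSA, IC50 fitted from eight-concentration serial dilution series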
T3 construct: purchased Eurofins, discovery 14-475

| Compound | IC50 [1] [µM] | IC50 [2] [µM] | GI50 [3] [µM] | GI50 [4] [µM] | IC50 [5] [µM] |
| --- | --- | --- | --- | --- | --- |
| COc1cccc(-c2ccc(Cl)cc2C[C@H]2C(=O)N(C)CCCCCCC[C@H](N(C)C(=O)[C@@H](NC(=O)[C@@H]3C[C@@H](F)CN3C(=O)C3(C(F)(F)F)CC(F)(F)C3)C3CC3)C(=O)N[C@@H](CC(C)C)C(=O)N2C)c1 [Example 197] ({cBuCO(3,3-F2-1-CF3)}-[Pro(trans-4-F)][Gly(cPr)][NMehhhLys(Me)]L[X192]; lactam 3-C) | 0.02 | 0.02 | 0.1 | 0.05 | 0.31 |
| CC(C)C[C@@H]1NC(=O)[C@@H](N(C)C(=O)[C@@H](NC(=O)[C@@H]2C[C@@H](F)CN2C(=O)C2(C(F)(F)F)CC(F)(F)C2)C2CC2)CCCCCCCN(C)C(=O)[C@H](Cc2cc(Cl)ccc2-c2ccc(OC3CCN(C)CC3)nc2)N(C)C1=O [Example 396] ({cBuCO(3,3-F2-1-CF3)}-[Pro(trans-4-F)][Gly(cPr)][NMehhhLys(Me)]L[X212]; lactam 3-C) | 0.02 | 0.03 | 0.01 | 0.02 | 2.53 |
| CC(C)C[C@@H]1NC(=O)[C@@H](N(C)C(=O)[C@@H](NC(=O)[C@@H]2C[C@@H](F)CN2C(=O)C2(C(F)(F)F)CC(F)(F)C2)C2CC2)CCCCCCCN(C)C(=O)[C@H](Cc2cc(F)ccc2-c2ccc(N3CCN(C)CC3)c(F)c2)N(C)C1=O [Example 401] ({cBuCO(3,3-F2-1-CF3)}-[Pro(trans-4-F)][Gly(cPr)][NMehhhLys(Me)]L[X145]; lactam 3-C) | 0.02 | 0.02 | 0.01 | 0.01 | 0.38 |
| CC(C)C[C@@H]1NC(=O)[C@@H](N(C)C(=O)[C@@H](NC(=O)[C@@H]2C[C@@H](F)CN2C(=O)C2(C(F)(F)F)CC(F)(F)C2)C2CC2)CCCCCCCNC(=O)[C@H](Cc2cc(Cl)ccc2-c2ccnnc2)N(C)C1=O [Example 291] ({cBuCO(3,3-F2-1-CF3)}-[Pro(trans-4-F)][Gly(cPr)][NMe(hhhLys)]L[X194]; lactam 3-C) | 0.02 | 0.07 | 0.15 | 0.12 | 5.16 |
| CC(C)C[C@@H]1NC(=O)[C@@H](N(C)C(=O)[C@@H](NC(=O)[C@@H]2C[C@@H](F)CN2C(=O)C2(C(F)(F)F)CC(F)(F)C2)C2CC2)CCCCCCCN(C)C(=O)[C@H](Cc2cc(F)ccc2-c2cnn(C3CCOCC3)c2)N(C)C1=O [Example 93] ({cBuCO(3,3-F2-1-CF3)}-[Pro(trans-4-F)][Gly(cPr)][NMehhhLys(Me)]L[X153]; lactam 3-C) | 0.02 | 0.02 | 0.01 | 0.01 | 0.14 |
| CC(C)C[C@@H]1NC(=O)[C@@H](N(C)C(=O)[C@@H](NC(=O)[C@@H]2C[C@@H](F)CN2C(=O)C2(C(F)(F)F)CC(F)(F)C2)C2CC2)CC=CCCCCN(C)C(=O)[C@H](Cc2cc(F)ccc2-c2cnn(C3CCOCC3)c2)N(C)C1=O [Example 84] | 0.02 | 0.05 | 0.01 | 0.02 | 0.29 |
| CC(C)C[C@@H]1NC(=O)[C@@H](N(C)C(=O)[C@@H](NC(=O)[C@@H]2C[C@@H](F)CN2C(=O)C2(C(F)(F)F)CCC2)C2CC2)CCCCCCCN(C)C(=O)[C@H](Cc2cc(F)ccc2-c2cnn(CC(F)F)c2)N(C)C1=O [Example 92] ({Cyclobutanecarbonyl(1-CF3)}-[Pro(trans-4-F)][Gly(cPr)][NMehhhLys(Me)]L[X208]; lactam 3-C) | 0.02 | 0.02 | 0.01 | 0.01 | 0.1 |
| CC(C)C[C@@H]1NC(=O)[C@@H](N(C)C(=O)[C@@H](NC(=O)[C@@H]2C[C@@H](F)CN2C(=O)C2(C(F)(F)F)CC(F)(F)C2)C2CC2)CCCCCCCN(C)C(=O)[C@H](Cc2cc(Cl)ccc2-c2ccnc(N3CCOCC3)c2F)N(C)C1=O [Example 349] ({cBuCO(3,3-F2-1-CF3)}-[Pro(trans-4-F)][Gly(cPr)][NMehhhLys(Me)]L[X149]; lactam 3-C) | 0.02 | 0.02 | 0.01 | 0.01 | 0.23 |
| CC(C)C[C@@H]1NC(=O)[C@@H](NC(=O)[C@@H](NC(=O)[C@@H]2C[C@@H](F)CN2C(=O)C2(C(F)(F)F)CC(F)(F)C2)C2CC2)CC=CCCCCN(C)C(=O)[C@H](Cc2cc(Cl)ccc2Cl)N(C)C1=O [Example 12] | 0.02 | 0.06 | 0.04 | 0.03 | 0.1 |
| CC(C)C[C@@H]1NC(=O)[C@@H](N(C)C(=O)[C@@H](NC(=O)[C@@H]2C[C@@H](F)CN2C(=O)C2(C(F)(F)F)CCC2)C2CC2)CC=CCCCCN(C)C(=O)[C@H](Cc2cc(Cl)ccc2Oc2ncccn2)N(C)C1=O [Example 157] | 0.02 | 0.36 | 0.14 | 0.08 | 0.41 |
